Values quoted from earlier work, collected in US20040259850A1, “Method for treating or preventing symptoms of hormonal variation including hot flashes” (priority 2001, published 2004).

What was measured:
hot flashes in patients = details: cited from earlier work; for amelioration of hot flashes, general statement: comparison of clonidine with estrogen
[1] = as stated in the background; cited from earlier work

Molecule	amelioration of hot flashes, general statement (hot flashes in patients)	side effects [1]	other results
estrogen	can virtually eliminate them	–	–
COc1ccc(C(CN(C)C)C2(O)CCCCC2)cc1 (centres unmarked) [venlafaxine]	–	mouth dryness, decreased appetite, nausea and constipation	effect on hot flashes (hot flashes in patients; early studies, survivors of breast cancer (Loprinzi et al. 2000)): effective non-hormonal method to diminish hot flashes
CN1CCN2c3ncccc3Cc3ccccc3C2C1 (centres unmarked) [Mirtazapine]	–	–	effect on hot flushes and perspiration bouts (hot flashes in patients; four case reports (Waldinger et al. 2000)): appears to have an ameliorating effect
Clc1cccc(Cl)c1N=C1NCCN1 [clonidine]	only mildly ameliorates hot flashes	–	effect on frequency and severity of hot flashes (hot flashes in patients; transdermal, tamoxifen-treated women (Goldberg et al. 1994)): only a moderate effect
CC(=O)O[C@]1(C(C)=O)CC[C@H]2[C@@H]3C=C(C)C4=CC(=O)CC[C@]4(C)[C@H]3CC[C@@]21C [megestrol acetate]	–	chronic adrenal insufficiency can be a side effect	effect on frequency of hot flashes (hot flashes in patients; low dose oral, men and women, short term study (Loprinzi et al. 1994)): reduce the frequency of hot flashes
